Results on 22 molecules are retold here after article PMC10539350 (Scientific Reports, 2023).

Each structure is given as a SMILES string. ≈ marks a conversion by molar mass, not a printed value.

The subject of one experiment is M. tuberculosis SIRE Ciprofloxacin resistant 22/22. The experiment in a line: tuberculostatic activity, broth microdilution MIC (Alamar blue). In kind it is cell-based, Mycobacterium tuberculosis.
Conditions: not given
In general terms: Broth dilution looks for growth in wells or tubes with falling amounts of substance.
Take `CO[C@H]1/C=C/O[C@@]2(C)Oc3c(C)c(O)c4c(O)c(c(/C=N/N5CCN(C)CC5)c(O)c4c3C2=O)NC(=O)/C(C)=C\C=C\[C@H](C)[C@H](O)[C@@H](C)[C@@H](O)[C@@H](C)[C@H](OC(C)=O)[C@@H]1C` [Rifampicin, reference compound]: the activity in words entry is on record as “no activity”.

The experiment is the same for the next values; noted with them: Mycobacterium tuberculosis, read-out: Minimal inhibitory concentration.
Regarding `CC(=O)NC[C@H]1CN(c2ccc(N3CCOCC3)c(F)c2)C(=O)O1` [Linezolid, reference compound], the MIC was 8 µg/mL (≈ 23.7 µM).

Turning to `CO[C@H]1/C=C/O[C@@]2(C)Oc3c(C)c(O)c4c(O)c(c(/C=N/N5CCN(C)CC5)c(O)c4c3C2=O)NC(=O)/C(C)=C\C=C\[C@H](C)[C@H](O)[C@@H](C)[C@@H](O)[C@@H](C)[C@H](OC(C)=O)[C@@H]1C` [Rifampicin, reference compound], the MIC was 256 µg/mL (≈ 311 µM).

Still in this experiment, the particulars now being: Mycobacterium tuberculosis; read-out: Minimal inhibitory concentration.
As for `CC1CCC(C(C)C)C(OCC(=O)N2CCN(c3cc4c(cc3F)c(=O)c(C(=O)O)cn4C3CC3)CC2)C1` (stereo not drawn) [Compound 1], the MIC turned out to be 32 µg/mL (≈ 60.6 µM).

As to `CC1CCC(C(C)C)C(OC(=O)CN2CCN(c3cc4c(cc3F)c(=O)c(C(=O)O)cn4C3CC3)CC2)C1` (stereo not drawn) [Compound 2], the MIC stood at 16 µg/mL (≈ 30.3 µM).

In the case of `CC1CCC(C(C)C)C(OC(=O)CCN2CCN(c3cc4c(cc3F)c(=O)c(C(=O)O)cn4C3CC3)CC2)C1` (stereo not drawn) [Compound 3], the MIC stood at 16 µg/mL (≈ 29.5 µM).

As for `CC1CCC(C(C)C)C(OC(=O)CCCN2CCN(c3cc4c(cc3F)c(=O)c(C(=O)O)cn4C3CC3)CC2)C1` (stereo not drawn) [Compound 4], the MIC worked out at 16 µg/mL (≈ 28.8 µM).

In the case of `CC1CCC(C(C)C)C(OC(=O)CCCCN2CCN(c3cc4c(cc3F)c(=O)c(C(=O)O)cn4C3CC3)CC2)C1` (stereo not drawn) [Compound 5], the MIC is 16 µg/mL (≈ 28.1 µM).

For the molecule `CC(C)[C@@H]1CC[C@@H](C)C[C@H]1OC(=O)CCCCCN1CCN(c2cc3c(cc2F)c(=O)c(C(=O)O)cn3C2CC2)CC1` [Compound 6, 1‐cyclopropyl‐6‐fluoro‐7‐{4‐[6‐((1R,2S,5R)‐2‐isopropyl‐5‐methylcyclohexyloxy)‐6‐oxohexyl]piperazin‐1‐yl}‐4‐oxo‐1,4‐dihydroquinoline‐3‐carboxylic acid], the MIC came to 8 µg/mL (≈ 13.7 µM).

Turning to `CC1CCC(C(C)C)C(OC(=O)CCCCOC(=O)c2cn(C3CC3)c3cc(N4CCN(CCCCC(=O)OC5CC(C)CCC5C(C)C)CC4)c(F)cc3c2=O)C1` (stereo not drawn) [Compound 7], the MIC amounted to 256 µg/mL (≈ 317 µM).

As for `CC1CCC(C(C)C)C(OC(=O)CCCCCOC(=O)c2cn(C3CC3)c3cc(N4CCN(CCCCCC(=O)OC5CC(C)CCC5C(C)C)CC4)c(F)cc3c2=O)C1` (stereo not drawn) [Compound 8], the MIC stood at 256 µg/mL (≈ 306 µM).

As to `Cc1ccc(C(C)C)c(OCC(=O)N2CCN(c3cc4c(cc3F)c(=O)c(C(=O)O)cn4C3CC3)CC2)c1` [Compound 9], the MIC amounted to 128 µg/mL (≈ 245 µM).

In the case of `Cc1ccc(C(C)C)c(OC(=O)CN2CCN(c3cc4c(cc3F)c(=O)c(C(=O)O)cn4C3CC3)CC2)c1` [Compound 10], the MIC was 128 µg/mL (≈ 245 µM).

With `Cc1ccc(C(C)C)c(OC(=O)CCN2CCN(c3cc4c(cc3F)c(=O)c(C(=O)O)cn4C3CC3)CC2)c1` [Compound 11], the MIC was 64 µg/mL (≈ 119 µM).

In the case of `Cc1ccc(C(C)C)c(OC(=O)CCCN2CCN(c3cc4c(cc3F)c(=O)c(C(=O)O)cn4C3CC3)CC2)c1` [Compound 12], the MIC is 32 µg/mL (≈ 58.2 µM).

Consider `Cc1ccc(C(C)C)c(OC(=O)CCCCN2CCN(c3cc4c(cc3F)c(=O)c(C(=O)O)cn4C3CC3)CC2)c1` [Compound 13], for which the MIC was found to be 32 µg/mL (≈ 56.8 µM).

On to `Cc1ccc(C(C)C)c(OC(=O)CCCCCN2CCN(c3cc4c(cc3F)c(=O)c(C(=O)O)cn4C3CC3)CC2)c1` [Compound 14], for which the MIC is 16 µg/mL (≈ 27.7 µM).

As for `Cc1ccc(C(C)C)c(OC(=O)CCCOC(=O)c2cn(C3CC3)c3cc(N4CCN(CCCC(=O)Oc5cc(C)ccc5C(C)C)CC4)c(F)cc3c2=O)c1` [Compound 15], the MIC was found to be 256 µg/mL (≈ 333 µM).

For the molecule `Cc1ccc(C(C)C)c(OC(=O)CCCCCOC(=O)c2cn(C3CC3)c3cc(N4CCN(CCCCCC(=O)Oc5cc(C)ccc5C(C)C)CC4)c(F)cc3c2=O)c1` [Compound 16], the MIC was determined as 256 µg/mL (≈ 311 µM).

Regarding `CC[C@@H](CO)NCCN[C@@H](CC)CO` [Ethambutol, reference compound], the MIC worked out at 4 µg/mL (≈ 19.6 µM).

For `NNC(=O)c1ccncc1` [Isoniazid, reference compound], the MIC is 32 µg/mL (≈ 233 µM).

As to `[H]/N=C(/N)N[C@H]1[C@H](O)[C@@H](O)[C@H](O[C@@H]2O[C@@H](C)[C@](O)(C=O)[C@H]2O[C@@H]2O[C@@H](CO)[C@H](O)[C@@H](O)[C@@H]2NC)[C@@H](N/C(N)=N\[H])[C@@H]1O` [Streptomycin, reference compound], the MIC worked out at 32 µg/mL (≈ 55 µM).

The test system is the same in a further experiment.
Assay: not given
Format: cell-based, Mycobacterium tuberculosis. Also on record: unit not given beside the values.
Conditions: not given
As for `O=C(O)c1cn(C2CC2)c2cc(N3CCNCC3)c(F)cc2c1=O` [Ciprofloxacin, reference compound], the “MIC for reference drug in the presence of derivative 6” value amounted to 8.

As for `CC(=O)NC[C@H]1CN(c2ccc(N3CCOCC3)c(F)c2)C(=O)O1` [Linezolid, reference compound], the “MIC for reference drug in the presence of derivative 6” value is listed as 4.
